Source: US20160130278A1 (TAISHO PHARMACEUTICAL CO., LTD, priority 2013, published 2016)

target: T1, human type 1 glycine transporter (GlyT1) (Homo sapiens, UniProt P48067); experiment: Glycine uptake inhibition experiment ([3H]glycine uptake); format: cell-based; details: GlyT1
T1 construct: T98G cells (glioma cells) expressing human type 1 glycine transporter (GlyT1) were used
T1 sequence (P48067 1-706): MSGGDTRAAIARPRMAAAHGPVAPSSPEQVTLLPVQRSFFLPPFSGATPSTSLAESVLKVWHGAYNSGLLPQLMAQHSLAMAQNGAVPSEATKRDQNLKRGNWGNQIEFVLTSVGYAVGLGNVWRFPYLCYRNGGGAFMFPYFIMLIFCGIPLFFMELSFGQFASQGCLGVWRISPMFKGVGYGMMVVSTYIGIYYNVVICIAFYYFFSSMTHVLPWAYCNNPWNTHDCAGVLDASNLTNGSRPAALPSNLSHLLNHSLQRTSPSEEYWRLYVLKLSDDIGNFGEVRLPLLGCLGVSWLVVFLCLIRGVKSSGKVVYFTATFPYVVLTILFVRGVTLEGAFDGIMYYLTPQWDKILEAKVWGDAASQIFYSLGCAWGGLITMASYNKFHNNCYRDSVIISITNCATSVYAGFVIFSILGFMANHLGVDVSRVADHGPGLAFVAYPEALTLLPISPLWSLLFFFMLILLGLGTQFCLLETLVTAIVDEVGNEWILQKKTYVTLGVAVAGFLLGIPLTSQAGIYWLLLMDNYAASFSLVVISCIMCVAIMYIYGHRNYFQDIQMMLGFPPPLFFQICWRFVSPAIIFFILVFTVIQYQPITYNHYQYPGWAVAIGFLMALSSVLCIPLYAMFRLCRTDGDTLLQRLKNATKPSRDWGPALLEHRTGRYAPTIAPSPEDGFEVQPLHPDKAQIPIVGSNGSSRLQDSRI
Description: Glycine Uptake Inhibition Experiment
A glycine uptake experiment was conducted in accordance with the method published in Neuron, 8, 927-935, 1992. In the experiment, T98G cells (glioma cells) expressing human type 1 glycine transporter (GlyT1) were used. The T98G cells were seeded in a 96-well plate at 2.0×10^4 cells/well and cultured overnight in a CO2 incubator. The test substance was dissolved in a 100% DMSO solution and then dissolved in a 10 mM HEPES buffer solution (pH 7.4) containing 150 mM sodium chloride, 1 mM calcium chloride, 5 mM potassium chloride, 1 mM magnesium chloride, 10 mM glucose and 0.2% bovine serum albumin. After removing the cell culture medium, the test substance was subjected to a 10-min pretreatment. Subsequently, the test substance and [^3H] glycine (final concentration: 250 nM) were added to the cells and reaction was performed at room temperature for 15 minutes. After the end of the reaction, the extracellular fluid was aspirated with a manifold to remove excess labeled glycine present outside the cells, and then the cells were lysed with a 0.5 M aqueous sodium hydroxide solution. The glycine content in the cells was determined by measuring the radioactivity in the cell lysate with a liquid scintillation counter. Glycine uptake in the presence of 10 μM ALX5407 was defined as non-specific uptake, and the value calculated by subtracting the amount of the non-specific uptake from the total uptake in the absence of 10 μM ALX5407 was defined as specific uptake. In addition, glycine uptake inhibitory activity (IC50 value) was calculated from an inhibition curve at the concentrations of each test substance ranging from 10^−9 to 10^−5 M. It should be noted that ALX5407 is an HCl salt of N-[(3R)-3-([1,1′-biphenyl]-4-yloxy)-3-(4-fluorophenyl)propyl]-N-methylglycine.

Row | SMILES | IC50
1 | O=C(NC(c1ncccc1Cl)C1(O)CCC(F)(F)CC1)c1nccc(C(F)(F)F)c1Cl (single isomer, unassigned) [Compound 319, 3-chloro-N-[(3-chloropyridin-2-yl)(4,4-difluoro-1-hydroxycyclohexyl)methyl]-4-(trifluoromethyl)pyridine-2-carboxamide] | 1800 nM
2 | O=C(NC(c1cccc(F)c1Cl)[C@]1(O)CC[C@@H](F)CC1)c1ncccc1Cl (single isomer, unassigned) [Compound 249, 3-chloro-N-[(2-chloro-3-fluorophenyl)(cis-4-fluoro-1-hydroxycyclohexyl)methyl]pyridine-2-carboxamide] | 1200 nM
3 | O=C(NC(c1cccc(F)c1)C1(O)CCC(F)(F)CC1)c1nccc(C(F)(F)F)c1Cl (stereo not drawn) [Compound 75, 3-chloro-N-[(4,4-difluoro-1-hydroxycyclohexyl)(3-fluorophenyl)methyl]-4-(trifluoromethyl)pyridine-2-carboxamide] | 240 nM
4 | CS(=O)(=O)c1cc(C(F)(F)F)cnc1C(=O)NC(c1cccc(F)c1Cl)[C@]1(O)CC[C@@H](F)CC1 (single isomer, unassigned) [Compound 389, N-[(2-chloro-3-fluorophenyl)(cis-4-fluoro-1-hydroxycyclohexyl)methyl]-3-(methylsulfonyl)-5-(trifluoromethyl)pyridine-2-carboxamide] | 1800 nM
5 | CCn1cc(-c2cccc(C(NC(=O)c3cccc(C(F)(F)F)c3C)C3(O)CCC(F)(F)CC3)c2)cn1 (stereo not drawn) [Compound 125, N-{(4,4-difluoro-1-hydroxycyclohexyl)[3-(1-ethyl-1H-pyrazol-4-yl)phenyl]methyl}-2-methyl-3-(trifluoromethyl)benzamide] | 350 nM
6 | Cn1nc2c(c1C(=O)NC(c1cccc(F)c1Cl)[C@]1(O)CC[C@@H](F)CC1)CCCC2 (single isomer, unassigned) [Compound 260, N-[(2-chloro-3-fluorophenyl)(cis-4-fluoro-1-hydroxycyclohexyl)methyl]-2-methyl-4,5,6,7-tetrahydro-2H-indazol-3-carboxamide] | 1700 nM
7 | O=C(NC(c1cccc(-c2ccccn2)c1)C1(O)CCC(F)(F)CC1)c1ccnc(C(F)(F)F)c1Cl (single isomer, unassigned) [Compound 189, 3-chloro-N-{(4,4-difluoro-1-hydroxycyclohexyl)[3-(pyridin-2-yl)phenyl]methyl}-2-(trifluoromethyl)pyridine-4-carboxamide] | 200 nM
8 | O=C(NC(c1cccc(F)c1Cl)[C@]1(O)CC[C@@H](F)CC1)c1cc(-n2nccn2)ccc1Cl (single isomer, unassigned) [Compound 336, 2-chloro-N-[(2-chloro-3-fluorophenyl)(cis-4-fluoro-1-hydroxycyclohexyl)methyl]-5-(2H-1,2,3-triazol-2-yl)benzamide] | 690 nM
9 | O=C(NC(c1cc(Cl)ccc1F)[C@]1(O)CC[C@@H](F)CC1)c1nccc(C(F)(F)F)c1Cl (single isomer, unassigned) [Compound 375, 3-chloro-N-[(5-chloro-2-fluroophenyl)(cis-4-fluoro-1-hydroxycyclohexyl)methyl]-4-(trifluoromethyl)pyridine-2-carboxamide] | 250 nM
10 | O=C(NC(c1cccc(Cl)n1)C1(O)CCCC1)c1nccc(C(F)(F)F)c1Cl (stereo not drawn) [Compound 383, 3-chloro-N-[(6-chloropyridin-2-yl)(1-hydroxycyclopentyl)methyl]-4-(trifluoromethyl)pyridine-2-carboxamide] | 21 nM
11 | O=C(NC(c1cc(Cl)ccn1)[C@]1(O)CC[C@@H](F)CC1)c1ccnc(C(F)(F)F)c1Cl (single isomer, unassigned) [Compound 330, 3-chloro-N-[(4-chloropyridin-2-yl)(cis-4-fluoro-1-hydroxycyclohexyl)methyl]-2-(trifluoromethyl)pyridine-4-carboxamide] | 56 nM
12 | CCn1cc(-c2cccc(C(NC(=O)c3cccc(OC)c3Cl)C3(O)CCC(F)(F)CC3)c2)cn1 (stereo not drawn) [Compound 207, 2-chloro-N-{(4,4-difluoro-1-hydroxycyclohexyl)[3-(1-ethyl-1H-pyrazol-4-yl)phenyl]methyl}-3-methoxybenzamide] | 8800 nM
13 | O=C(NC(c1cccc(F)c1Cl)[C@]1(O)CC[C@@H](F)CC1)c1cnccc1Cl (single isomer, unassigned) [Compound 250, 4-chloro-N-[(2-chloro-3-fluorophenyl)(cis-4-fluoro-1-hydroxycyclohexyl)methyl]pyridine-3-carboxamide] | 1900 nM
14 | O=C(NC(c1cccc(Cl)n1)[C@]1(O)CC[C@@H](F)CC1)c1ccnc(C(F)(F)F)c1Cl (single isomer, unassigned) [Compound 338, 3-chloro-N-[(6-chloropyridin-2-yl)(cis-4-fluoro-1-hydroxycyclohexyl)methyl]-2-(trifluoromethyl)pyridine-4-carboxamide] | 96 nM
15 | Cc1cccc(C)c1C(=O)NC(c1ccccc1)C1(O)CCCC1 (stereo not drawn) [Compound 30, N-[(1-hydroxycyclopentyl)(phenyl)methyl]-2,6-dimethylbenzamide] | 6500 nM
16 | O=C(NC(c1cccc(F)c1Cl)[C@]1(O)CC[C@@H](F)CC1)c1c(Cl)cccc1Cl (single isomer, unassigned) [Compound 254, 2,6-dichloro-N-[(2-chloro-3-fluorophenyl)(cis-4-fluoro-1-hydroxycyclohexyl)methyl]benzamide] | 1000 nM
17 | O=C(NC(c1cccc(C(F)(F)F)c1)C1(O)CCCC1)c1nccc(C(F)(F)F)c1Cl (stereo not drawn) [Compound 81, 3-chloro-N-{(1-hydroxycyclopentyl)[3-(trifluoromethyl)phenyl]methyl}-4-(trifluoromethyl)pyridine-2-carboxamide] | 960 nM
18 | O=C(NC(c1ccc(F)c(Cl)c1)C1(O)CCCC1)c1nccc(C(F)(F)F)c1Cl (stereo not drawn) [Compound 93, 3-chloro-N-{(3-chloro-4-fluorophenyl)(1-hydroxycyclopentyl)methyl}-4-(trifluoromethyl)pyridine-2-carboxamide] | 430 nM
19 | O=C(NC(c1cccc(F)n1)C1(O)CCC(F)(F)CC1)c1nccc(C(F)(F)F)c1Cl (single isomer, unassigned) [Compound 358, 3-chloro-N-[(4,4-difluoro-1-hydroxycyclohexyl)(6-fluoropyridin-2-yl)methyl]-4-(trifluoromethyl)pyridine-2-carboxamide] | 150 nM
20 | O=C(NC(c1cccc(-c2ncccn2)c1)C1(O)CCC(F)(F)CC1)c1nccc(C(F)(F)F)c1Cl (stereo not drawn) [Compound 160, 3-chloro-N-{(4,4-difluoro-1-hydroxycyclohexyl)[3-(pyrimidin-2-yl)phenyl]methyl}-4-(trifluoromethyl)pyridine-2-carboxamide] | 880 nM
21 | O=C(NC(c1ccc(F)c(Cl)c1)[C@]1(O)CC[C@@H](F)CC1)c1nccc(C(F)(F)F)c1Cl (single isomer, unassigned) [Compound 228, 3-chloro-N-[(3-chloro-4-fluorophenyl)(cis-4-fluoro-1-hydroxycyclohexyl)methyl]-4-(trifluoromethyl)pyridine-2-carboxamide] | 4200 nM
22 | O=C(NC(c1cccnc1Cl)[C@]1(O)CC[C@@H](F)CC1)c1cc(C(F)(F)F)ccc1Cl (single isomer, unassigned) [Compound 325, 2-chloro-N-[(2-chloropyridin-3-yl)(cis-4-fluoro-1-hydroxycyclohexyl)methyl]-5-(trifluoromethyl)benzamide] | 430 nM
23 | CCn1cc(-c2cccc(C(NC(=O)c3ccnc(C(F)(F)F)c3Cl)C3(O)CCC(F)(F)CC3)c2)cn1 (stereo not drawn) [Compound 157, 3-chloro-N-[(4,4-difluoro-1-hydroxycyclohexyl)[3-(1-ethyl-1H-pyrazol-4-yl)phenyl]methyl]-2-(trifluoromethyl)pyridine-4-carboxamide] | 160 nM

same assay, conditions: human GlyT1

Row | SMILES | IC50
24 | CS(=O)(=O)c1nc(C(F)(F)F)ccc1C(=O)NC(c1ccccc1Cl)C1(O)CCC(F)(F)CC1 (single isomer, unassigned) [Compound 406, N-[(2-chlorophenyl)(4,4-difluoro-1-hydroxycyclohexyl)methyl]-2-(methylsulfonyl)-6-(trifluoromethyl)pyridine-3-carboxamide] | 320 nM
